Measurements taken from patent publication US12275729B2 (Merck Sharp & Dohme LLC, priority 2017, dated 2025).

How the values were obtained:
[1] = target: T1, IDO1 (Homo sapiens, UniProt P14902); assay: IDO1 Cellular Assay in HeLa Cells Stimulated with IFNγ; type: cell-based; conditions: read-out: Hela IC50
[2] = target: T1, IDO1; assay: IDO1 Human Whole Blood Assay; type: cell-based; parameters: Human whole blood was drawn in sodium heparin coated tubes from healthy internal donors; from tissue; host or cells: human whole blood from healthy donors, stimulated with LPS and IFNγ; conditions: LPS and IFNγ stimulated
Description: IDO1 Human Whole Blood Assay
Compounds to be tested were serially diluted in ten 3-fold steps in DMSO starting from 10 mM. […] LPS and IFNγ was prepared in RPMI to a 10× of final conc. (1000 ng/mL), final concentration is 100 ng/mL.
Human whole blood was drawn in sodium heparin coated tubes from healthy internal donors. 240 μL of blood was transferred to each of the wells of a v-bottom 96 well plate. 30 μL of compound was transferred from intermediate dilution plate, and incubated for 15 min. 30 μL from stimulants was then transferred to blood and mixed thoroughly.
On day 2 isotope labeled standard of kynurenine and tryptophan was made in water at 1Ox concentration and 30 μL was added to the blood at […] final concentration. The assay plates were centrifuged at 300×G for 10 min with no brake to separate plasma from red blood cells. 60 μL of plasma samples was removed without disturbing red blood cells. Plasma was diluted with RPMI in 1:1 ratio and proteins were precipitated out with two volume of Acetonitrile. The plates were centrifuged at 4000×G for 60 min. 20 μL of supernatant was carefully transferred to a 384 well plate contain 40 μL of 0.1% formic acid in water and analyzed by LC/MS/MS.
LC/MS/MS analyses were performed using Thermo Fisher's LX4-TSQ Quantum Ultra system. This system consists of four Agilent binary high-performance liquid chromatography (HPLC) pumps and a TSQ Quantum Ultra triple quadrupole MS/MS instrument. For each sample, 5 μL were injected onto an Atlantis T3 column (2.1 mm×150 mm, […] particle size) from Waters. The mobile phase gradient pumped at 0.8 mL/min was used to elute the analytes from the column at 25° C. […] Mobile phase A consisted of 0.1% formic acid in water. Mobile phase B consisted of 0.1% of formic acid in acetonitrile. Data was acquired in positive mode using a HESI interface. The operational parameters for the TSQ Quantum Ultra instrument were a spray voltage of 4000 V, capillary temperature of 380° C., vaporizer temperature 400° C., shealth gas 60 arbitrary units, Aux gas 20 arbitrary units, tube lens 85 and collision gas 1.2 mTorr. […] The peak area was integrated by Xcalibur Quan software. The ratios between the kynurenine generated in the reaction and 2D6-Kynurenine spiked-in internal standard were used to generate percentage inhibition and IC50 values.

T1 sequence (P14902 whole entry): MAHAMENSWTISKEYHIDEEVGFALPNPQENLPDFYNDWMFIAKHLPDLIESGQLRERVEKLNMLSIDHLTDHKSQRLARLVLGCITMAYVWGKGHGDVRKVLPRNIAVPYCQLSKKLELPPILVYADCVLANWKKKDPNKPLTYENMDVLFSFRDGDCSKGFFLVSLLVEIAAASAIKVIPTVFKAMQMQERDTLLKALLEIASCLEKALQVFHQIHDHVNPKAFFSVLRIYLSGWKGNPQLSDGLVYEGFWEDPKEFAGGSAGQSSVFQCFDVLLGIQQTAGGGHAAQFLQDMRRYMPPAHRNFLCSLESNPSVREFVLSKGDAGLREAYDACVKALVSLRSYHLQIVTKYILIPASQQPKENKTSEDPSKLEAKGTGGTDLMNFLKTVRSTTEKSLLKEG

SMILES	IC50 [1] [nM]	IC50 [2] [nM]	IC50 ([1]; about 48 hours) [nM]	IC50 ([1]; value in running text) [nM]
Cc1nccc(N2CCCc3nc(C4(C(=O)Nc5ccc(F)cc5)CC5(CC5)C4)ccc32)n1 [Example 415, 2-(5-((4-fluorophenyl)carbamoyl)spiro [2.3]hexan-5-yl)-5-(2-methylpyrimidin-4-yl)-5,6,7,8-tetrahydro-1,5-naphthyridin-1-ium 2,2,2-trifluoroacetate]	3.19	18		
Cc1ccnc(C(=O)N2CCCc3nc(C(C)NC(=O)c4ccc(Cl)cc4)ccc32)n1 (stereo not shown) [Example 287, 4-chloro-N-(1-(5-(4-methylpyrimidine-2-carbonyl)-5,6,7,8-tetrahydro-1,5-naphthyridin-2-yl)ethyl)benzamide]		6	1.8	
CC(C(=O)Nc1ccc(F)cc1)c1ccc2c(n1)CCCN2C(=O)[C@H]1CCCO1 (stereo partly drawn) [Example 137, N-(4-fluorophenyl)-2-(5-((R)-tetrahydrofuran-2-carbonyl)-5,6,7,8-tetrahydro-1,5-naphthyridin-2-yl)propanamide]		29	12	
Cc1nc(C(=O)N2CCCc3cc([C@H](C)C(=O)Nc4ccc(F)cn4)ccc32)no1 [Example 65, (2S)-N-(5-fluoropyridin-2-yl)-2-[1-(5-methyl-1,2,4-oxadiazole-3-carbonyl)-1,2,3,4-tetrahydroquinolin-6-yl]propanamide]		2610	1.9	
Cc1nccc(N2CCCc3nc(C(C)(C)C(=O)Nc4ccc(F)cc4)ccc32)n1 [Example 389, N-(4-fluorophenyl)-2-methyl-2-(5-(2-methylpyrimidin-4-yl)-5,6,7,8-tetrahydro-1,5-naphthyridin-2-yl)propanamide]		44	2.92	
Cc1nccc(N2CCCc3nc(C4(C(=O)Nc5ccc(F)cc5)CC(OCc5ccccc5)C4)ccc32)n1 (stereo not shown) [Example 423, 2-(3-(benzyloxy)-1-((4-fluorophenyl)carbamoyl)cyclobutyl)-5-(2-methylpyrimidin-4-yl)-5,6,7,8-tetrahydro-1,5-naphthyridin-1-ium 2,2,2-trifluoroacetate]	6.84	26		6.8
Cc1nccc(N2CCCc3nc(C4(C(=O)Nc5ccc(Cl)cc5)COC4)ccc32)n1 [Example 394, N-(4-chlorophenyl)-3-(5-(2-methylpyrimidin-4-yl)-5,6,7,8-tetrahydro-1,5-naphthyridin-2-yl)oxetane-3-carboxamide]		7	1.93	
O=C([C@@H]1CCCCO1)N1CCCc2cc(C3(C(=O)Nc4ccc(F)cc4)CCC3)ccc21 (single isomer, unassigned) [Example 105]		61	1.9	
Cc1nc(C(=O)N2CCCc3cc(C4(C(=O)Nc5ccc(F)cc5)CCC4)ccc32)no1 [Example 100, N-(4-fluorophenyl)-1-[1-(5-methyl-1,2,4-oxadiazole-3-carbonyl)-1,2,3,4-tetrahydroquinolin-6-yl]cyclobutane-1-carboxamide]		90	1.2	
CC(NC(=O)c1ccc(F)cc1)c1ccc2c(n1)CCCN2Cc1cccc(Cl)c1 (stereo not shown) [Example 229, N-(1-{5-[(3-chlorophenyl)methyl]-5,6,7,8-tetrahydro-1,5-naphthyridin-2-yl}ethyl)-4-fluorobenzamide]		245	3.5	
C[C@H](C(=O)Nc1ccc(F)cc1)c1ccc2c(c1)CCCN2C(=O)C1CCOCC1 [Example 81, (2S)-N-(4-fluorophenyl)-2-[1-(oxane-4-carbonyl)-1,2,3,4-tetrahydroquinolin-6-yl]propanamide]		99	4.8	
COCCOC(=O)N1CCCc2nc(C3(NC(=O)c4ccc(Cl)cc4)CCC3)ccc21 [Example 413, 2-methoxyethyl 6-(1-(4-chlorobenzamido)cyclobutyl)-3,4-dihydro-1,5-naphthyridine-1(2H)-carboxylate]	3.79	17		
CC(C(=O)Nc1ccc(F)cc1)c1ccc2c(n1)CCCN2c1ccnc(C(F)(F)F)n1 (stereo not shown) [Example 364, N-(4-fluorophenyl)-2-(5-(2-(trifluoromethyl)pyrimidin-4-yl)-5,6,7,8-tetrahydro-1,5-naphthyridin-2-yl)propanamide]	4.99	198		
CC(C(=O)Nc1ccc(Cl)cc1)c1ccc2c(c1)CC(F)CN2C(=O)c1cccc(Cl)c1 (single isomer, unassigned) [Example 259, 2-(1-(3-chlorobenzoyl)-3-fluoro-1,2,3,4-tetrahydroquinolin-6-yl)-N-(4-chlorophenyl)propanamide]		41	2.51	
C[C@@H](NC(=O)c1ccc(F)cc1)c1ccc2c(n1)CCCN2C(=O)[C@H]1CCCO1 [Example 145, 4-fluoro-N-[(1R)-1-{5-[(2R)-oxolane-2-carbonyl]-5,6,7,8-tetrahydro-1,5-naphthyridin-2-yl}ethyl]benzamide]		125	8	
C[C@@H](C(=O)Nc1ccc(Cl)cc1)c1ccc2c(c1)CCCN2C(=O)c1cccc(Cl)c1 (single isomer, unassigned) [Example 57]		51	2.3	
O=C(OC1CC1)N1CCCc2nc(C3(C(=O)Nc4ccc(F)cc4)COC3)ccc21 [Example 266, cyclopropyl 6-(3-((4-fluorophenyl)carbamoyl)oxetan-3-yl)-3,4-dihydro-1,5-naphthyridine-1(2H)-carboxylate]		4	2.8	
CC(NC(=O)c1ccc(F)cc1)c1ccc2c(n1)CCCN2C(=O)OCC(F)F (stereo not shown) [Example 309, 2,2-difluoroethyl 6-(1-(4-fluorobenzamido)ethyl)-3,4-dihydro-1,5-naphthyridine-1(2H)-carboxylate]	24.6	78		
CC(C(=O)Nc1ccc(F)cc1)c1ccc2c(c1)CCCN2Cc1cccc(Cl)c1 (single isomer, unassigned) [Example 225, 2-{1-[(3-chlorophenyl)methyl]-1,2,3,4-tetrahydroquinolin-6-yl}-N-(4-fluorophenyl)propanamide]		149	4.7	
Cc1nc(N2CCCc3nc(C(C)NC(=O)c4ccc(Cl)cc4)ccc32)c2ccccc2n1 (stereo not shown) [Example 357, 2-(1-(4-chlorobenzamido)ethyl)-5-(2-methylquinazolin-4-yl)-5,6,7,8-tetrahydro-1,5-naphthyridin-1-ium 2,2,2-trifluoroacetate]	27.9	436		
CC(NC(=O)c1ccc(F)cc1)c1ccc2c(n1)CCCN2C(=O)c1ccn(C)n1 (stereo not shown) [Example 138, 4-fluoro-N-{1-[5-(1-methyl-1H-pyrazole-3-carbonyl)-5,6,7,8-tetrahydro-1,5-naphthyridin-2-yl]ethyl}benzamide]		67	6.3	
CC(NC(=O)c1ccc(F)cc1)c1ccc2c(n1)CCCN2C(=O)c1c(Cl)cccc1Cl (stereo not shown) [Example 150, N-{1-[5-(2,6-dichlorobenzene-1-carbonyl)-5,6,7,8-tetrahydro-1,5-naphthyridin-2-yl]ethyl}-4-fluorobenzamide]		1140	7.3	
Cc1ccc(C(=O)NC2(c3ccc4c(n3)CCCN4c3ccnc(C)n3)CC2)cc1 [Example 303, 4-methyl-N-(1-(5-(2-methylpyrimidin-4-yl)-5,6,7,8-tetrahydro-1,5-naphthyridin-2-yl)cyclopropyl)benzamide]		106	2.15	
CC(C(=O)Nc1ccc(F)cc1)c1ccc2c(c1)CCCN2C(=O)c1cnn(C)c1 (stereo not shown) [Example 48, N-(4-fluorophenyl)-2-[1-(1-methyl-1H-pyrazole-4-carbonyl)-1,2,3,4-tetrahydroquinolin-6-yl]propanamide]		321	15.8	
CC(NC(=O)c1ccc(F)cc1)c1ccc2c(c1)CCCN2C(CO)c1cccc(Cl)c1 (single isomer, unassigned) [Example 93]		450	5.7	
Cc1ncnc(N2CCCc3nc(C(C)NC(=O)c4ccc(Cl)cc4)ccc32)c1C (stereo not shown) [Example 347, 4-chloro-N-(1-(5-(5,6-dimethylpyrimidin-4-yl)-5,6,7,8-tetrahydro-1,5-naphthyridin-2-yl)ethyl)benzamide]	156	340		
CCn1ccc(N2CCCc3cc(C4(C(=O)Nc5ccc(F)cn5)CCC4)ccc32)n1 [Example 232, 1-[1-(1-ethyl-H-pyrazol-3-yl)-1,2,3,4-tetrahydroquinolin-6-yl]-N-(5-fluoropyridin-2-yl)cyclobutane-1l-carboxamide]		557	5.4	
